Measurements published in patent US20100048634A1, “METHOD FOR TREATING APATHY SYNDROME” (priority 2005, published 2010).

Assays:
Format in all cases: in vivo, human
[1] = system: post-stroke patients; experiment: Controlled clinical trial against placebo, Apathy Evaluation Scale
Procedure: Apathy Evaluation Scale (AES) is used as a measure of apathy severity. Items and factor structure of AES are listed in Marin, et al. (Psychiatry Res. 1991; 38(2):143-62). The assessment, the impairment, as well as and the need of recovery of apathy and cognitive function after stroke are illustrated by Robert G. Robinson “The Clinical Neuropsychiatry of Stroke”, 1998, Cambridge University Press, pages 143, 222-225 and 292-293.
(§1) In this trial, nefiracetam was administered orally to 103 post-stroke patients, who all have some degree of depression, for up to twelve weeks after the vascular event. Concurrently, 56 patients received placebo (placebo group). Of the 103 post-stroke patients treated with nefiracetam, 55 received 600 mg daily (600 mg group), and 48 received 900 mg daily (900 mg group). The three groups of patients were followed for up to 12 weeks, and evaluated at the end of week 4, the end of week 8, and the end of week 12, by measuring the Apathy Evaluation Scale (a symptom scale for measuring apathy), and by measuring SDMT (for measuring cognitive function).

[2] = system: post-stroke patients having moderate to severe depression; experiment: Apathy Scale (AS) in post-stroke patients having moderate to severe depression; conditions: 600 or 900 mg/day oral, 12 weeks, especially high dose
From the text: Apathy Scale (AS) is an abbreviated version of the AES. Items and scoring of Papthy Scale can be found, for example, at Starkstein, et al., J Neuropsychiatry Clin. Neurosciences, 4: 134-139 (1992).
(§2) In 151 post-stroke patients having moderate to severe depression, the intervention-free data of Apathy Scale (AS), as a valid measure of apathy, and of Hamilton Rating Scale of Depression (HAM-D) and Beck Depression Inventory (BDI), as valid measures of depression, were collected and analyzed using the method of confirmatory factor analysis. HAM-D and BDI are fully validated and are widely used measures of the severity of depression. HAM-D (Hamilton, J Neurol. Neurosurg. Psychiatry. 23:56-62, 1960) is rated by a professional. BDI (Arch Gen Psychiatry. 4:561-571, 1961) is rated by a patient.
(§3) The 151 patients, who were evaluated at least once after treatment, included the 103 patients studied in Example 1. The 151 patients were divided in three groups each orally receiving placebo (51 patients) or nefiracetam at 600 mg/day (54 patients) or nefiracetam at 900 mg/day (46 patients).
(§4) The data at the end of 12 weeks were analyzed and summarized as follows: […]

[3] = system: post-stroke patients; experiment: Controlled clinical trial against placebo, symbol digit modality test (SDMT), cognitive function; conditions: for change in cognitive function (SDMT): at 4 weeks, placebo 3.2; for average improvement in cognitive function (SDMT): last visit, placebo 4.2; for improvement in the SDMT scale: patients with cortical strokes, week 12, placebo 2.7
From the text: Cognitive function can be measured using a tool called the symbol digit modality test (SDMT). In this test, patients have a legend which links each digit to a specific graphical, non-text symbol. The patients have a pre-specified, fixed period of time to match, in writing, as many digits to a list of symbols as possible. The number of correctly matched digits to symbols provides a measure of a range of cognitive functions, including executive function, attention, memory, and motor function (Joy, et.al. Arch Clin Neuropsychol. 19:759-67, 2004; Joy, et.al. Clin Neuropsychol. 17:182-94; 2003)
as §1

[4] = system: post-stroke patients having moderate to severe depression; experiment: Hamilton Rating Scale of Depression (HAM-D) in post-stroke patients having moderate to severe depression; conditions: 600 or 900 mg/day oral; 12 weeks; consistent across various severity of baseline apathy
From the text: as §2, §3, §4

[5] = 600 and 900 mg daily oral, up to 12 weeks

Cc1cccc(C)c1NC(=O)CN1CCCC1=O [nefiracetam]
improvement in apathy (Apathy Evaluation Scale) ([1]; 600 mg daily oral, at 4 weeks, placebo 1.4): 1.9 point | average improvement in apathy (Apathy Evaluation Scale) ([1]; 600 mg daily oral, cortical stroke patients, last visit carried forward, placebo 1.0): 3.4 | improvement in apathy (Apathy Evaluation Scale) ([1]; 600 mg daily oral, cortical strokes and significant baseline apathy (greater than 18), last visit, placebo 5.4): 9.4 points | average improvement in apathy (Apathy Evaluation Scale) ([1]; 600 mg daily oral, last visit (12 weeks), placebo 1.4): 2.1 points | average improvement in apathy (Apathy Evaluation Scale) ([1]; 600 mg daily oral, patients treated within 28 days of the stroke, placebo 0.6): 1.3 points | improvement in apathy (Apathy Evaluation Scale) ([1]; 900 mg daily oral, at 4 weeks, placebo 1.4): 1.9 point | average improvement in apathy (Apathy Evaluation Scale) ([1]; 900 mg daily oral, cortical stroke patients, last visit carried forward, placebo 1.0): 5.2 points | improvement in apathy (Apathy Evaluation Scale) ([1]; 900 mg daily oral, cortical strokes and significant baseline apathy (greater than 18), last visit, placebo 5.4): 11.7 points | average improvement in apathy (Apathy Evaluation Scale) ([1]; 900 mg daily oral, last visit (12 weeks), placebo 1.4): 3.4 points | average improvement in apathy (Apathy Evaluation Scale) ([1]; 900 mg daily oral, patients treated within 28 days of the stroke, placebo 0.6): 6.1 points | change in apathy syndrome in comparison to the placebo group (in words) [1, 5]: dose-dependent and time-dependent change in apathy syndrome | reduction in apathy measured by the Apathy Scale versus placebo (in words) ([2]; consistent across moderate to severe and severe depression): more reduction in apathy than did patients on placebo | reduction in apathy measured by the Apathy Scale versus placebo (in words) ([2]; consistent across various severity of baseline apathy): more reduction in apathy than did patients on placebo | change in cognitive function (SDMT) ([3]; 600 mg daily oral): 4.1 point | average improvement in cognitive function (SDMT) ([3]; 600 mg daily oral): 5.7 points | improvement in the SDMT scale ([3]; 600 mg daily oral): 7 points | change in cognitive function (SDMT) ([3]; 900 mg daily oral): 4.4 point | average improvement in cognitive function (SDMT) ([3]; 900 mg daily oral): 6.6 points | improvement in the SDMT scale ([3]; 900 mg daily oral): 14.2 points | improvements in cognitive function as measured by the SDMT (in words) [3, 5]: dose-dependent and time-dependent improvements in cognitive function | reduction in depression measured by HAM-D versus placebo (in words) [4]: patients on placebo showed slightly more reduction in depression than did patients on active treatment
